The conditions of series [1]: in vivo.
In series [2] the test system is histone deacetylase enzyme H1. The settings on record: disclosed in PCT publication WO 2004/019174; cited from earlier work.
Series [3] in a line: Solubility (background statement).
Series [4] in a line: Oral bioavailability (background statement). The settings on record: have to be administered parenterally for therapeutic effect.

Like-named read-outs stand apart in the source and are kept apart here.

As to `CN(C)CCOc1ccc2[nH]c(C(=O)NCC#Cc3ccc(C(=O)NO)cc3)cc2c1` [5-(2-dimethylaminoethoxy)-1H-indole-2-carboxylic acid [3-(4-hydroxy-carbamoylphenyl)prop-2-ynyl]amide], the oral bioavailability result in series [1] is recorded as “poor”. Moreover, in series [2], the “inhibition of histone deacetylase enzyme H1” value is recorded as “inhibitors”.
Turning to `CN(C)CCOc1ccc2[nH]c(C(=O)NCC#Cc3ccc(C(=O)NO)cc3)cc2c1.Cl` [hydrochloride salt, 5-(2-dimethylaminoethoxy)-1H-indole-2-carboxylic acid [3-(4-hydroxy-carbamoylphenyl)prop-2-ynyl]amide hydrochloride], in series [2], the “inhibition of histone deacetylase enzyme H1” value was “inhibitors”. Besides, the solubility entry in series [3] is “poor”. In addition, in series [4], the oral bioavailability entry was “poor”.
